Read-outs that look alike come from different tables or passages of the source.
Assays:
[1] = system: U251 human CNS tumor cells (glioblastoma); details: for survivors day 100: QD1, 5, 9; for median day of death and median survival time: intravenous, q4d×3
Description: Tumor Model: Each animal was implanted with one million U251 human CNS tumor cells from an in vitro cell line by ic injection with a 25 gauge needle. The day of tumor implantation (May 24, 2006) was designated as day 0. A sufficient number of mice were implanted so that animals with body weights in a range as narrow as possible were selected for the trial on the day of treatment initiation (day 1 after tumor implantation). Animals were randomly assigned to the treatment groups and individually identified by earmark codes.
A portion of this solution was then diluted with the complete vehicle to achieve the lower dosing concentration of 1.2 mg/mL. […] Temozolomide (Temodar, Schering Corporation) was prepared on each day of injection in Klucel+tween 80 at a concentration of 4 mg/mL. Temozolomide was administered within 5 minutes of formulation on the basis of exact body weight using a volume of 0.2 mL/10 g of body weight.
Data Collection: Animal health surveillance was conducted and mortality data were collected daily. The animals were weighed twice weekly starting with the first day of treatment.
Study Duration: The study was terminated 100 days after tumor implantation. Any animal found moribund or whose body weight dropped below 14 g was euthanized prior to study termination.
Parameters Evaluated: Number of 100-day survivors, median day of death, and the increase in lifespan based on median day of death and expressed as a percentage (% ILS), median survival time and the % ILS based on median survival time.

KB = test: MTS proliferation assay, head/neck KB; format: cell-based; details: Homo sapiens
Method: MTS Proliferation Assay (Promega)
Day 1: Cells were plated in appropriate growth medium at 5×10^3 per well in 100 ul in 96 well tissue culture plates, Falcon, one for each drug to be tested. Col 1 was blank; it contained no cells, just medium. The plates were incubated overnight at 37° C., 5% CO2 to allow attachment.
Day 2: Added 120 ul growth medium in wells of 96-well “dilution plates” (one for each drug) and let sit in 37° C. incubator for about 1 hr.
Thawed DMSO drug stocks (usually at 10 mM). Each drug was diluted 6 ul into a tube with 3 ml growth medium, to 20 μM.
Aspirated medium from col 12 of a dilution plate; added 200-300 ul of 20 uM drug to wells of col 12. Made serial dilution down this 96-well plate: for a […] dilution pattern, moved 60 ul from col 12 to col 11, mixed 4-5 times (using 8 place multi-pipettor), moved 60 ul to col 10, etc. stopping at col 3.
Moved 100 ul of medium+drug from dilution plate to a cell plate, i.e. col 1 from drug plate (blank=no cells) to col 1 of cell plate, etc. up to col 12. Col 2 contained cells with no drug. […]
Day 4 or 5: Terminated the assay 48 to 72 hrs after drug addition. […] When the color turned dark in control wells (col 2), and was still light in col 12, the absorbance at 490 nm was read on a plate reader; the results were used to calculate IC50.

[2] = Phase 1 Study S-(1)-01 plasma pharmacokinetics (weekly x3, 28-day cycle); format: in vivo, human; details: for half-life / AUC(0-t): human, plasma; for AUC(0-t): read-out: AUC0-24
Description: Both trials have enrolled patients with advanced solid tumors, non-Hodgkin's lymphoma or Hodgkin's lymphoma that have recurred or progressed following at least standard therapy; patients with malignancies for which there is no standard therapy; patients who are not candidates for standard therapy; or patients who have chosen not to pursue standard therapy. […] Study S-(1)-01 is currently being conducted in the United States. […] Study S-(1)-02 is currently being conducted in the United States and in Israel.
Plasma pharmacokinetics of S-(1) were assessed following the first dose of S-(1) in both studies. Plasma samples were analyzed for S-(1) using a validated LC/MS-MS method.

[3] = 14 mg/m^2 i.v., first dose, 50:50 Cremophor EL-P/ethanol formulation
[4] = 28 mg/m^2 i.v., first dose, 50:50 Cremophor EL-P/ethanol formulation
[5] = 56 mg/m^2 i.v., first dose, 50:50 Cremophor EL-P/ethanol formulation
[6] = 85 mg/m^2 i.v., first dose, 50:50 Cremophor EL-P/ethanol formulation
[7] = 127.5 mg/m^2 i.v., first dose, 50:50 Cremophor EL-P/ethanol formulation

For `C=C[C@H]1O[C@H]2C[C@H]3OC[C@@]3(OC(C)=O)[C@H]3[C@H](OC(=O)c4ccccc4)[C@]4(C(C)(C)O)CC(OC(=O)[C@H](O)C(CC(C)C)NC(=O)OC(C)(C)C)C(C)=C4[C@H](OC(C)=O)[C@H](O1)[C@]23C` (stereo partly drawn) [S-(1)], the “survivors day 100” value ([1]; S-(1) 12 mg/kg) was 100 = 0), the “median day of death and median survival time” value ([1]; S-(1) 12 mg/kg/dose) was 14.5 days and the “survivors day 100” value ([1]; S-(1) 20 mg/kg) was 100 = 0). The “median day of death and median survival time” value ([1]; S-(1) 20 mg/kg/dose) was 16 days, the “effect against the U251 human CNS tumor cells (in words)” value ([1]; monotherapy or combination as dosed in the study) was “moderate effect” and the IC50 (KB) was 9.4 nM. For the same compound, the Cl [2, 3] was 35.5 ± 29.7 L/hr/m^2, the Vss [2, 3] was 23.2 ± 74.5 L/m^2 and the Cl [2, 4] was 43.5 ± 14.5 L/hr/m^2. For the same compound, the Vss [2, 4] was 309 ± 161 L/m^2, the Cl [2, 5] was 28.6 ± 13.2 L/hr/m^2 and the Vss [2, 5] was 216 ± 70 L/m^2. The Cl [2, 6] was 16.6 ± 9.26 L/hr/m^2, the Vss [2, 6] was 142 ± 75.6 L/m^2 and the Cl [2, 7] was 30.2±11.9 L/hr/m^2. It also gave a Vss [2, 7] of 239 ± 116 L/m^2, a t1/2 [2, 7] of 6.59 ± 2.60 h and a half-life ([2]; intravenous, S-(1)-01 study, all dose groups, read-out: Plasma t1/2 values, range over dose groups) of 3.45 to 8.4 h. For the same compound, the AUC(0-t) ([2]; iv, 14 mg/m2, 14 mg/m^2 i.v., first dose, 50:50 Cremophor EL-P/ethanol formulation) was 457 ± 297 ng·h/mL, the half-life ([2]; iv, 14 mg/m2, 14 mg/m^2 i.v., first dose, 50:50 Cremophor EL-P/ethanol formulation, read-out: t1/2 (converted)) was 8.4 ± 11.5 h and the AUC(0-t) ([2]; iv, 28 mg/m2, 28 mg/m^2 i.v., first dose, 50:50 Cremophor EL-P/ethanol formulation) was 682 ± 322 ng·h/mL. For the same compound, the half-life ([2]; iv, 28 mg/m2, 28 mg/m^2 i.v., first dose, 50:50 Cremophor EL-P/ethanol formulation, read-out: t1/2 (converted)) was 3.45 ± 1.09 h, the AUC(0-t) ([2]; iv, 56 mg/m2, 56 mg/m^2 i.v., first dose, 50:50 Cremophor EL-P/ethanol formulation) was 2070 ± 888 ng·h/mL and the half-life ([2]; iv, 56 mg/m2, 56 mg/m^2 i.v., first dose, 50:50 Cremophor EL-P/ethanol formulation, read-out: t1/2 (converted)) was 5.66 ± 3.63 h. The AUC(0-t) ([2]; iv, 85 mg/m2, 85 mg/m^2 i.v., first dose, 50:50 Cremophor EL-P/ethanol formulation) was 5970 ± 3900 ng·h/mL, the half-life ([2]; iv, 85 mg/m2, 85 mg/m^2 i.v., first dose, 50:50 Cremophor EL-P/ethanol formulation, read-out: t1/2 (converted)) was 5.52 ± 5.26 h and the AUC(0-t) ([2]; iv, 127.5 mg/m2, 127.5 mg/m^2 i.v., first dose, 50:50 Cremophor EL-P/ethanol formulation) was 4460 ± 2140 ng·h/mL. For the same compound, the half-life ([2]; iv, 127.5 mg/m2, 127.5 mg/m^2 i.v., first dose, 50:50 Cremophor EL-P/ethanol formulation, read-out: t1/2 (converted)) was 8.6 ± 1.3 h.
